Several values for one entry are separate records, joined by “and”; a condition that tells them apart may be missing. Equal entries are not always repeated.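 Results reflect a 48-hour exposure of cells in 96-well plates to compound at five concentrations. GI50 marks 50% less growth. TGI denotes the concentration required for complete inhibition of growth.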
Key:
Experiment in all cases: NCI tumour cell line growth inhibition, 48 h
P388 leukemia = tested on: P388 leukemia
P388/ADR leukemia = tested on: P388/ADR leukemia
SN12K1 renal = tested on: SN12K1 renal
KM20L2 colon = tested on: KM20L2 colon
LXFL 529 NSCLC = tested on: LXFL 529 NSCLC
RXF-631 renal = tested on: RXF-631 renal

Compound: O=P(NCCCO)(OCc1ccccc1)N(CCCl)CCCl (stereo unspecified)
- TGI (P388 leukemia): > 100 µM
- TGI (P388/ADR leukemia): > 100 µM
- TGI (SN12K1 renal): > 100 µM
- TGI (KM20L2 colon): > 100 µM

Compound: C#C[C@]1(O)CC[C@H]2[C@@H]3CCc4cc(O)ccc4[C@H]3CC[C@@]21C
- TGI (LXFL 529 NSCLC): > 100 µM
- TGI (KM20L2 colon): 38.9 µM

Compound: CCCCCCCCCCCCCCCc1nc(=S)[nH][nH]1
- TGI (LXFL 529 NSCLC): > 100 µM

Compound: COc1ccc(CCn2cncn2)cc1
- TGI (LXFL 529 NSCLC): > 100 µM
- TGI (RXF-631 renal): > 100 µM
- TGI (KM20L2 colon): > 100 µM

Compound: C=C1C(O)C2(O)OCC34C(CC5C(C)=CC(=O)C(O)C5(C)C23)OC(=O)C(OC(=O)C/C=C/CCCCCCCC)C14 (stereo unspecified)
- TGI (P388/ADR leukemia): 0.278 µM
- TGI (SN12K1 renal): 0.022 µM
- TGI (KM20L2 colon): 0.31 µM

Compound: O=c1c2cc(O)ccc2n2nnc3ccc(NCCNCCO)c1c32
- TGI (LXFL 529 NSCLC): 18.1 µM and 13 µM
- GI50 (KM20L2 colon): 27.1 µM and 13.4 µM
- TGI (KM20L2 colon): > 100 µM and 44.9 µM

Reference: PubChem BioAssay (NCI)
